Measurements: ChEMBL document CHEMBL3045183, “Bioefficacy of violacein against Asian armyworm Spodoptera litura Fab. (Lepidoptera: Noctuidae)” (2012)
Values after ≈ are worked out from the molar mass of the structure shown. Active and inactive are the calls of the source. The rule behind the calls is not given here.

What was measured:
[1] = tested on: Chironomus riparius; experiment: Larvicidal activity against Chironomus riparius; format: functional
[2] = tested on: Spodoptera litura; experiment: Pupicidal activity Spodoptera litura third-instar larva fed on 125 ppm compound pre-treated castor leaf disks for 24 hr followed by larval maintenance on fresh castor leaves until pupae formation assessed as pupal mortality (reference value: 8.0 +/- 4.47%); format: functional
[3] = tested on: Spodoptera litura; experiment: Antifeedant activity against Spodoptera litura third-instar larva fed on compound pre-treated castor leaf disks measured after 24 hr by leaf-disk no-choice method (reference value: 2.09 +/- 0.94%); format: functional; conditions: for LC50: Spodoptera litura, foliar
[4] = tested on: Spodoptera litura; experiment: Larvicidal activity Spodoptera litura third-instar larva fed on 1000 ppm compound pre-treated castor leaf disks for 24 hr followed by larval maintenance on fresh castor leaves assessed as insect mortality measured after 96 hr; format: functional
[5] = tested on: Spodoptera litura; experiment: Larvicidal activity Spodoptera litura third-instar larva fed on 500 ppm compound pre-treated castor leaf disks for 24 hr followed by larval maintenance on fresh castor leaves assessed as insect mortality measured after 96 hr; format: functional
[6] = tested on: Spodoptera litura; experiment: Antifeedant activity against Spodoptera litura third-instar larva fed on 1000 ppm compound pre-treated castor leaf disks measured after 24 hr by leaf-disk no-choice method (reference value: 2.09 +/- 0.94%); format: functional
[7] = tested on: Spodoptera litura; experiment: Insecticidal activity Spodoptera litura third-instar larva fed on 250 ppm compound pre-treated castor leaf disks for 24 hr followed by larval maintenance on fresh castor leaves assessed as total mortality (reference value: 8%); format: functional
[8] = tested on: Spodoptera litura; experiment: Larvicidal activity Spodoptera litura third-instar larva fed on 250 ppm compound pre-treated castor leaf disks for 24 hr followed by larval maintenance on fresh castor leaves assessed as insect mortality measured after 96 hr; format: functional
[9] = tested on: Spodoptera litura; experiment: Antifeedant activity against Spodoptera litura third-instar larva fed on 500 ppm compound pre-treated castor leaf disks measured after 24 hr by leaf-disk no-choice method (reference value: 2.09 +/- 0.94%); format: functional
[10] = tested on: Spodoptera litura; experiment: Pupicidal activity Spodoptera litura third-instar larva fed on 250 ppm compound pre-treated castor leaf disks for 24 hr followed by larval maintenance on fresh castor leaves until pupae formation assessed as pupal mortality (reference value: 8.0 +/- 4.47%); format: functional
[11] = tested on: Spodoptera litura; experiment: Insecticidal activity Spodoptera litura third-instar larva fed on 125 ppm compound pre-treated castor leaf disks for 24 hr followed by larval maintenance on fresh castor leaves assessed as total mortality (reference value: 8%); format: functional
[12] = tested on: Spodoptera litura; experiment: Larvicidal activity Spodoptera litura third-instar larva fed on 125 ppm compound pre-treated castor leaf disks for 24 hr followed by larval maintenance on fresh castor leaves assessed as insect mortality measured after 96 hr; format: functional
[13] = tested on: Spodoptera litura; experiment: Antifeedant activity against Spodoptera litura third-instar larva fed on 125 ppm compound pre-treated castor leaf disks measured after 24 hr by leaf-disk no-choice method (reference value: 2.09 +/- 0.94%); format: functional
[14] = tested on: Spodoptera litura; experiment: Larvicidal activity Spodoptera litura third-instar larva fed on compound pre-treated castor leaf disks for 24 hr followed by larval maintenance on fresh castor leaves assessed as insect mortality measured after 96 hr; format: functional; conditions: for LC50: Spodoptera litura, foliar
[15] = tested on: Spodoptera litura; experiment: Antifeedant activity against Spodoptera litura third-instar larva fed on 250 ppm compound pre-treated castor leaf disks measured after 24 hr by leaf-disk no-choice method (reference value: 2.09 +/- 0.94%); format: functional
[16] = tested on: Helicoverpa armigera; experiment: Antifeedant activity against Helicoverpa armigera at 1000 ppm; format: functional
[17] = tested on: Spodoptera litura; experiment: Insecticidal activity Spodoptera litura third-instar larva fed on 1000 ppm compound pre-treated castor leaf disks for 24 hr followed by larval maintenance on fresh castor leaves assessed as induction of abnormalities; format: functional, organism-based
[18] = tested on: Spodoptera litura; experiment: Insecticidal activity Spodoptera litura third-instar larva fed on 1000 ppm compound pre-treated castor leaf disks for 24 hr followed by larval maintenance on fresh castor leaves assessed as total mortality (reference value: 8%); format: functional
[19] = tested on: Spodoptera litura; experiment: Pupicidal activity Spodoptera litura third-instar larva fed on 500 ppm compound pre-treated castor leaf disks for 24 hr followed by larval maintenance on fresh castor leaves until pupae formation assessed as pupal mortality (reference value: 8.0 +/- 4.47%); format: functional
[20] = tested on: Spodoptera litura; experiment: Pupicidal activity Spodoptera litura third-instar larva fed on 1000 ppm compound pre-treated castor leaf disks for 24 hr followed by larval maintenance on fresh castor leaves until pupae formation assessed as pupal mortality (reference value: 8.0 +/- 4.47%); format: functional
[21] = tested on: Spodoptera litura; experiment: Insecticidal activity Spodoptera litura third-instar larva fed on 500 ppm compound pre-treated castor leaf disks for 24 hr followed by larval maintenance on fresh castor leaves assessed as total mortality (reference value: 8%); format: functional

[C-]#[N+][C@@H]1[C@H]2c3c[nH]c4cccc(c34)C(C)(C)[C@H]2CC[C@@]1(C)C=C [12-EPI-HAPALINDOLE J ISONITRILE]
Activity [1]: 100%

C/C=C(\C)C(=O)O[C@H]1C[C@@H](OC(C)=O)[C@@]2(C(=O)OC)CO[C@H]3[C@@H](O)[C@@](C)([C@]45O[C@@]4(C)[C@@H]4C[C@H]5O[C@@H]5OC=C[C@@]54O)[C@H]4[C@]1(CO[C@]4(O)C(=O)OC)[C@@H]32 [AZADIRACHTIN A]
mortality [2]: 28% | LC90 [3]: 3278.46 ppm | LC50 [3]: 134 µg/mL (≈ 186 µM) | mortality [4]: 100% | mortality [5]: 93.55% | AFI [6]: 79.41% | mortality [7]: 98.28% | mortality [8]: 70.21% | AFI [9]: 70.49% | mortality [10]: 28% | mortality [11]: 85.33% | mortality [12]: 57.33% | AFI [13]: 49.67% | LC90 [14]: 412.78 ppm | LC50 [14]: 119 µg/mL (≈ 165 µM) | AFI [15]: 61.31%

O=C1NC(c2c[nH]c3ccc(O)cc23)=C/C1=C1\C(=O)Nc2ccccc21 [VIOLACEIN]
mortality [2]: 22% | AFI [16]: >80% | LC90 [3]: 3649.91 ppm | LC50 [3]: 392 µg/mL (≈ 1140 µM) | mortality [4]: 77.1% | mortality [5]: 68.88% | AFI [6]: 72.46% | mortality [7]: 77.99% | mortality [8]: 53.99% | Activity [17]: Active | AFI [9]: 55.16% | mortality [18]: 99.1% | mortality [10]: 24% | mortality [11]: 51.11% | mortality [19]: 20.7% | mortality [12]: 29.11% | mortality [20]: 22% | AFI [13]: 28.66% | LC90 [14]: 2016.71 ppm | LC50 [14]: 255 µg/mL (≈ 743 µM) | mortality [21]: 89.58% | AFI [15]: 39.69%
